Test results taken from patent US5521088A, “Alcohol acetyltransferase genes and use thereof” (Kirin Beer Kabushiki Kaisha, priority 1992, dated 1996).
Entries after “also recorded” stand apart in the source; their conditions may differ. Read-outs that look alike come from different tables or passages of the source.

Tests used:
AATase [1] = target: T1, AATase (Saccharomyces cerevisiae, UniProt P40353, N391K/T84I); assay: biochemical; type: biochemical
T1 construct: culturing yeast cells of Saccharomyces cerevisiae KYOKAI No. 7 and recovering and purifying the crude enzyme; endogenous in cells; host or cells: Saccharomyces cerevisiae KYOKAI No. 7 (sake yeast)
T1 sequence (P40353 1-525 T84I/N391K): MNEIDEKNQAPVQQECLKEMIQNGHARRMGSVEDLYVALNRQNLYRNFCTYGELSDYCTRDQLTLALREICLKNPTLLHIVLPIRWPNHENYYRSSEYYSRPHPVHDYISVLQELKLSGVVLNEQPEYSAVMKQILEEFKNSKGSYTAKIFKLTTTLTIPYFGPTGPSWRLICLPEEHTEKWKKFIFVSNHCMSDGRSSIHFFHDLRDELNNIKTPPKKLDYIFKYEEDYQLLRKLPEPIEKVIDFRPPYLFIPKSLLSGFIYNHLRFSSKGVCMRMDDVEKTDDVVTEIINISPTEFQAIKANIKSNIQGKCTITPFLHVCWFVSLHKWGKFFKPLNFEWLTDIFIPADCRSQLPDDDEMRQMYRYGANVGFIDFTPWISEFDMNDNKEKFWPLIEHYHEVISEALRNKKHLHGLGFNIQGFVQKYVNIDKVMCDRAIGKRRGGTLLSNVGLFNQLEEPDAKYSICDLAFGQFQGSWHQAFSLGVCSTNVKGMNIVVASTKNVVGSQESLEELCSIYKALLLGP

AATase [2] = target: T1, AATase; assay: biochemical; conditions: read-out: Relative activity (%)
[3] = substrate: CC(C)CCO; assay: Km value of AATase to isoamyl alcohol and acetyl-CoA; type: biochemical, Saccharomyces cerevisiae; conditions: other: substrate of AATase; pH 7.5; 25.0 °C
Experimental: (§1) A 1 ml of a solution containing a buffer for AATase reaction (25 mM imidazole hydrochloride buffer (pH 7.5), 1 mM acetyl-CoA, 0.1% Triton X-100, 0.5% isoamyl alcohol, 1 mM dithiothreitol, 0.1M sodium chloride, 20% glycerol: or 10 mM phosphate buffer (pH 7.5), 1 mM acetyl-CoA, 0.1% Triton X-100, 0.5% isoamyl alcohol, 1 mM dithiothreitol, 0.1M sodium chloride, 20% glycerol) and the enzyme of the present invention was encapsulated into a 20 ml vial and reacted at 25° C. for 1 hour. After incubation, the vial was opened and the reaction was stopped by adding 0.6 g of sodium chloride. n-Butanol was added as an internal standard to the reaction mixture up to 50 ppm. The vial was capped with a teflon stopper. Then, the isoamyl acetate generated was determined with the head space gas chromatography (Shimadzu GC-9A, HSS-2A) under the following condition: […]

[4] = substrate: CC(=O)SCCNC(=O)CCNC(=O)[C@H](O)C(C)(C)COP(=O)(O)OP(=O)(O)OC[C@H]1O[C@@H](n2cnc3c(N)ncnc32)[C@H](O)[C@@H]1OP(=O)(O)O; assay: as above; type: biochemical, Saccharomyces cerevisiae; conditions: other: substrate of AATase; pH 7.5; 25.0 °C
Experimental: as §1

## O=S(=O)(F)Cc1ccccc1 [PMSF, Phenylmethanesulfonyl fluoride]
AATase [1]
  Relative activity (%): 70.2%

## CCCCCCCCCCCCCCCCCC(=O)O [Stearic acid]
AATase [2]
  activity at 2000 µM: 80.5%

## c1cnc2c(c1)ccc1cccnc12 [1,10-phenanthroline]
AATase [1]; read-out: Relative activity (%)
  activity at 1000 µM: 87.9%

## CCCCCCCCCCCCCCCC(=O)O [Palmitic acid]
AATase [2]
  activity at 2000 µM: 88.1%

## CCCCCCCC/C=C\CCCCCCCC(=O)O [Oleic acid]
AATase [2]
  activity at 2000 µM: 59.6%

## CCCCC/C=C\C/C=C\CCCCCCCC(=O)O [Linoleic acid]
AATase [2]
  activity at 2000 µM: 4.3%

## CC/C=C\C/C=C\C/C=C\CCCCCCCC(=O)O [Linolenic acid]
AATase [2]
  activity at 2000 µM: 32%

## CCCCCC/C=C\CCCCCCCC(=O)O [Palmitoleic acid]
AATase [2]
  activity at 2000 µM: 16.7%

## O=C(O)c1cc[c]([Hg][Cl])cc1 [PCMB, pChloromercuribenzoic acid]
AATase [1]
  Inhibition of the enzyme (in words): inhibited strongly; also recorded: intensively inhibited
  Relative activity (%): 0%

## CCCCCCCCCCCCCC(=O)O [Myristic acid]
AATase [2]
  activity at 2000 µM: 60.5%

## O=C(O)c1cc(SSc2ccc([N+](=O)[O-])c(C(=O)O)c2)ccc1[N+](=O)[O-] [DTNB, Dithiobis(2nitrobenzoic acid)]
AATase [1]; inhibitor 0.1 mM per footnote (head: 1 mM), None = 100
  Relative activity (%): 0%

B1: AATase (Saccharomyces cerevisiae S288C; N391K/T84I) (protein)
chain: T1 sequence (P40353 1-525 T84I/N391K)
notes: culturing yeast cells of Saccharomyces cerevisiae KYOKAI No. 7 and recovering and purifying the crude enzyme; endogenous in cells; host or cells: Saccharomyces cerevisiae KYOKAI No. 7 (sake yeast)
[3]
  Km: 29.8 mM
[4]
  Km: 0.19 mM
